Results on three molecules are retold here after patent publication US20250206754A1, “PAN-CHEMOKINE ANTAGONISTS FOR USE IN TREATING CANCER AND IMMUNE DISORDERS” ("Micar Innovation" LTD., priority 2022, published 2025).

Where “and” joins values, the source holds several entries; their conditions need not be identical. Equal entries are not always repeated. Where two headings read alike, the source gives them in different places.

Assay [1] has as its target T1, CCR7 (Homo sapiens, UniProt P32248).
T1 construct: expressed in transfected cells
T1 sequence (P32248 25-378): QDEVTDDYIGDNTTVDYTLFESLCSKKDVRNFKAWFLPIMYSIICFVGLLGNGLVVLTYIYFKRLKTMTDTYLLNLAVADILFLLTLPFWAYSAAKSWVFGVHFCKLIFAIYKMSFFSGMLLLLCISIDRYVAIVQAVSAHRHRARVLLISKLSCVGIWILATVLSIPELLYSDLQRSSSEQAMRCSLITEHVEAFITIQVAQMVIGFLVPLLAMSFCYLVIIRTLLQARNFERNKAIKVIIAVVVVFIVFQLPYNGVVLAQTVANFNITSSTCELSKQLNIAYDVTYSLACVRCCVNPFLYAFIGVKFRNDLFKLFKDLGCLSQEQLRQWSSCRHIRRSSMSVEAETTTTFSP
To be noted: β-arrestin related assay, CCR7, reference [2]; cited from earlier work.

For assay [2], the target named is T1, CCR7. Nature of the assay: Ca^2+ mobilization assay, CCR7. To be noted: Ca^2+ mobilization assay, CCR7. In kind it is cell-based. How it is done: Selected compounds were initially sent for both antagonist and agonist TANGO β-arrestin assays. […] Replacement only on the amide group with CN led to strong activity decrease in β-arrestin assay: only 31% activity at about 30 μM and similar one at 100 μM (Table 1). Five more derivatives with replaced amide group were also tested in parallel by Ca^2+ mobilization assay and they all were not active up to the tested concertation of 100 μM.
To examine the colloid aggregation possibility a β-lactamase enzymatic activity counterscreen assay was performed, which is the commonly adopted tool for detection of such properties of the compounds.

In the next assay the target is CCR2 (Homo sapiens, UniProt P41597). Nature of the assay: β-arrestin selectivity assay, CCR2. The assay is classed as cell-based.
Sequence of CCR2 (P41597 whole entry): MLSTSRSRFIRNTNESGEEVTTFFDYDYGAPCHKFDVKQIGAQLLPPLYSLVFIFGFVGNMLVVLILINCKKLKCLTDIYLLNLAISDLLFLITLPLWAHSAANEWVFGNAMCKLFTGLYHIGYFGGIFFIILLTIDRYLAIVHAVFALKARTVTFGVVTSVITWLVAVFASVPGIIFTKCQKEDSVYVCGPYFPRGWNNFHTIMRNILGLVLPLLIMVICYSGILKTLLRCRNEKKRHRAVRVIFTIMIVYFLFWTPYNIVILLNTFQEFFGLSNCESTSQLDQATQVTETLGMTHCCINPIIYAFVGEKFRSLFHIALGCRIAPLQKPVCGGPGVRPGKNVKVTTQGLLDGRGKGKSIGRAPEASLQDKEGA
The target of the next assay is T2, CCR3 (Homo sapiens, UniProt P51677).
T2 sequence (P51677 1-355): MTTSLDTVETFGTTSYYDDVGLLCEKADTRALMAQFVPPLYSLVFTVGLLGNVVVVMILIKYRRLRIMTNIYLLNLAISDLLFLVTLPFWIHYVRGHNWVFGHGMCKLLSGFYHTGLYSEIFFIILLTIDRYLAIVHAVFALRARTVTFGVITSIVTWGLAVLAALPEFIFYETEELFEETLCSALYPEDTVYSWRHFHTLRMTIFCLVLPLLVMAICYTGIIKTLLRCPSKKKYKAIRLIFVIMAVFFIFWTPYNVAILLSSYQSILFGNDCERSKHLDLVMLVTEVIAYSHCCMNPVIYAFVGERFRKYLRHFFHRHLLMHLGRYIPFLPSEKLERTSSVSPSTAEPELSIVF
Briefly: β-arrestin selectivity assay, CCR3. The assay is classed as cell-based.

For a further assay, the target named is CCR5 (Homo sapiens, UniProt P51681). Briefly: β-arrestin selectivity assay, CCR5. The assay is classed as cell-based.
Sequence of CCR5 (P51681 whole entry): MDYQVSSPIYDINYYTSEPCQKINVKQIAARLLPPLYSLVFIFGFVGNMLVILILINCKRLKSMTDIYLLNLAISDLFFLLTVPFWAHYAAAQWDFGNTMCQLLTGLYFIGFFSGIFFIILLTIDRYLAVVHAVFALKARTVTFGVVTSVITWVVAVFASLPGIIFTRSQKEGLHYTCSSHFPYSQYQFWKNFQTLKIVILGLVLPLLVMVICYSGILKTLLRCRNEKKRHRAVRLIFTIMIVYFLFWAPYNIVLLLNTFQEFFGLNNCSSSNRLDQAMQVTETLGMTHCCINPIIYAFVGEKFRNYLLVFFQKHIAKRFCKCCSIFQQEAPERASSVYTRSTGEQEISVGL
A further assay deals with T3, CCR1 (Homo sapiens, UniProt P32246).
T3 sequence (P32246 1-355): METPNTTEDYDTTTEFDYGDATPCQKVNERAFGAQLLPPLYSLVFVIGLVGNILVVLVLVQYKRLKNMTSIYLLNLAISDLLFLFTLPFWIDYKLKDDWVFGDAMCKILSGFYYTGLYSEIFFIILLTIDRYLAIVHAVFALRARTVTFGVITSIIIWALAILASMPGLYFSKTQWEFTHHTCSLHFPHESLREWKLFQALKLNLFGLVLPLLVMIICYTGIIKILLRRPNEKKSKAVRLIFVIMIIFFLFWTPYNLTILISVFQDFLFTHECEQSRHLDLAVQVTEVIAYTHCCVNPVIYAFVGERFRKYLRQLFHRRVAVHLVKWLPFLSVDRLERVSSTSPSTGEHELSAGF
Nature of the assay: β-arrestin selectivity assay, CCR1. In kind it is cell-based.

A further assay deals with CXCR4 (Homo sapiens, UniProt P61073). Briefly: Ca^2+ mobilization assay, CXCR4. The assay is classed as cell-based. On the procedure:
MIC5023. The synthesis path of MIC5023 is shown on Scheme 1. It consists of 5 chemical transformation in order the final product to be obtained. Two chlorine atoms were added to aromatic rings of MIC5022, and also one methyl group, which makes MIC5023 a close derivative of MIC5022. […] The Ca^2+ mobilization assays retrieved a value of IC50 of about 30 μM and similar for CXCR4; i.e. less than those observed for Hit 1 (MIC5022). MIC5024. The synthesis path of MIC5024 is shown on Scheme 2. It consists of 4 chemical transformation in order the final product to be obtained. The difference between MIC5023 and MIC5024 is only one methyl group introduced in the central five member aromatic ring but it decreased the β-arrestin activity of MIC5024 to CCR1, CCR2 and CCR3 below 30 μM. […] The Ca^2+ mobilization assays retrieved values of IC50>50 μM for CCR7 and CXCR4. Thus, it became evident that this methyl substitution is less sensitive only to CCR3 and CCR5.

Sequence of CXCR4 (P61073 whole entry): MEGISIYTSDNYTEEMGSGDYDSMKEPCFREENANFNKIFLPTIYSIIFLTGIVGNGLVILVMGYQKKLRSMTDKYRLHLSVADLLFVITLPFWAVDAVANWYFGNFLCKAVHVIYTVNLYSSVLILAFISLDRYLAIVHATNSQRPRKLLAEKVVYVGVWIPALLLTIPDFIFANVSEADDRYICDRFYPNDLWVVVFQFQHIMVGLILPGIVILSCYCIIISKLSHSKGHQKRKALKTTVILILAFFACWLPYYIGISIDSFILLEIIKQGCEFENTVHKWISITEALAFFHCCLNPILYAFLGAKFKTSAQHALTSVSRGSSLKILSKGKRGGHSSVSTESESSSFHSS

The IC50 is the midpoint of a concentration-inhibition curve. On to Cosaline, for which the IC50 on CCR7 [1] was 0.2 µM.

Turning to `Cc1nc(Oc2c(Cl)cccc2C(N)=O)c2cc(-c3ccccc3Cl)sc2n1` [MIC5024, 3-chloro-2-{[6-(2-chlorophenyl)-2-methylthieno[2,3-d]pyrimidin-4-yl]oxy}benzamide], the IC50 on CCR7 [2] was more than 50 µM; against CCR2 it was less than 30 µM; on CCR3 it was < 30 µM and 7.2 µM; on CCR5, 7.2 µM; at CCR1 it was less than 30 µM; against CXCR4, more than 50 µM.

In the case of `Cc1nc(Oc2c(Cl)cccc2C(N)=O)c2c(C)c(-c3ccccc3Cl)sc2n1` [MIC5023, 3-chloro-2-{[6-(2-chlorophenyl)-2,5-dimethylthieno[2,3-d]pyrimidin-4-yl]oxy}benzamide], the IC50 is approximately 30 µM at CCR7 [2]; 31.5 µM against CCR2; more than 9.5 µM at CCR3; 2.1 µM against CCR5; more than 30 µM against CCR1; approximately 30 µM against CXCR4.
